Experimental data as given in patent US8124793B2, “Derivatives of ethylene methanedisulfonate as cancer chemotherapeutic agents” (priority 2007, dated 2012).

Legend:
Format in all cases: cell-based
UACC-257 = test: NCI screen, growth of human tumor cells: Melanoma UACC-257
Procedure: (§1) In the NCI screening process, each compound was tested and described by a minimum of 60 data points. The test data include, but are not limited to the type of cancer, the molar concentration used in the screen, and the percent growth of the cancer. In some cases, NMR and elemental analysis were used for structural assignment.

SN12C = test: NCI screen, growth of human tumor cells: Renal Cancer SN12C; conditions: SN12C (Renal Cancer), 10^−4 molar
Procedure: as §1

HS 578T = test: NCI screen, growth of human tumor cells: Breast Cancer HS 578T; conditions: HS 578T (Breast Cancer), 10^−4 molar
Procedure: as §1

UACC-62 = test: NCI screen, growth of human tumor cells: Melanoma UACC-62
Procedure: as §1

NCI-H23 = test: NCI screen, growth of human tumor cells: Non-Small Cell Lung NCI-H23; conditions: NCI-H23 (Non-Small Cell Lung), 10^−4 molar
Procedure: as §1

ACHN = test: NCI screen, growth of human tumor cells: Renal Cancer ACHN; conditions: ACHN (Renal Cancer), 10^−4 molar
Procedure: as §1

NCI-H460 = test: NCI screen, growth of human tumor cells: Non-Small Cell Lung NCI-H460; conditions: NCI-H460 (Non-Small Cell Lung), 10^−4 molar
Procedure: as §1

HL-60 (TB) = test: NCI screen, growth of human tumor cells: Leukemia HL-60 (TB); conditions: HL-60 (TB) (Leukemia), 10^−4 molar
Procedure: as §1

SK-MEL-28 = test: NCI screen, growth of human tumor cells: Melanoma SK-MEL-28; conditions: SK-MEL-28 (Melanoma), 10^−4 molar
Procedure: as §1

SF-295 = test: NCI screen, growth of human tumor cells: CNS Cancer SF-295; conditions: SF-295 (CNS Cancer), 10^−4 molar
Procedure: as §1

HCT-116 = test: NCI screen, growth of human tumor cells: Colon Cancer HCT-116; conditions: HCT-116, 10^−4 molar
Procedure: as §1

human cancer cells = test: NCI screen summary over the cancers tested (negative growth of human cancer cells); conditions: 10^−4 M conc.; cancers with negative growth / cancers tested
Procedure: as §1
The derivatives in the tables are grouped using the same category as in the tables 1-6.

HCT-15 = test: NCI screen, growth of human tumor cells: Colon Cancer HCT-15
Procedure: as §1

K562 = test: NCI screen, growth of human tumor cells: Leukemia K562; conditions: K562 (Leukemia), 10^−4 molar
Procedure: as §1

MDA-MB-231/ATCC = test: NCI screen, growth of human tumor cells: Breast Cancer MDA-MB-231/ATCC; conditions: MDA-MB-231/ATCC (Breast Cancer), 10^−4 molar
Procedure: as §1

RPMI-8226 = test: NCI screen, growth of human tumor cells: Leukemia RPMI-8226; conditions: RPMI-8226 (Leukemia), 10^−4 molar
Procedure: as §1

UO-31 = test: NCI screen, growth of human tumor cells: Renal Cancer UO-31; conditions: UO-31 (Renal Cancer), 10^−4 molar
Procedure: as §1

MDA-MB-435 = test: NCI screen, growth of human tumor cells: Breast Cancer MDA-MB-435; conditions: MDA-MB-435, 10^−4 molar
Procedure: as §1

M14 = test: NCI screen, growth of human tumor cells: Melanoma M14; conditions: M14 (Melanoma), 10^−4 molar
Procedure: as §1

HOP-92 = test: NCI screen, growth of human tumor cells: Non-Small Cell Lung HOP-92; conditions: HOP-92 (Non-Small Cell Lung), 10^−4 molar
How it was run: (§2)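 Percent-growth read-out from the NCI cancer cell screen; data annotated by cancer type and molar concentration, ≥60 points per compound.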

HOP-62 = test: NCI screen, growth of human tumor cells: Non-Small Cell Lung HOP-62; conditions: HOP-62 (Non-Small Cell Lung), 10^−4 molar
Procedure: as §1

SF-268 = test: NCI screen, growth of human tumor cells: CNS Cancer SF-268; conditions: SF-268 (CNS Cancer), 10^−4 molar
Procedure: as §1

SK-MEL-5 = test: NCI screen, growth of human tumor cells: Melanoma SK-MEL-5; conditions: SK-MEL-5 (Melanoma), 10^−4 molar
Procedure: as §1

RXF-393 = test: NCI screen, growth of human tumor cells: Renal Cancer RXF-393; conditions: RXF-393 (Renal Cancer), 10^−4 molar
Procedure: as §1

SR = test: NCI screen, growth of human tumor cells: Leukemia SR; conditions: SR (Leukemia), 10^−4 molar
How it was run: as §2

SW620 = test: NCI screen, growth of human tumor cells: Colon Cancer SW620; conditions: SW620 (Colon Cancer), 10^−4 molar
Procedure: as §1

OVCAR-8 = test: NCI screen, growth of human tumor cells: Ovarian Cancer OVCAR-8; conditions: OVCAR-8 (Ovarian Cancer), 10^−4 molar
Procedure: as §1

OVCAR-4 = test: NCI screen, growth of human tumor cells: Ovarian Cancer OVCAR-4; conditions: OVCAR-4 (Ovarian Cancer), 10^−4 molar
Procedure: as §1

BT-549 = test: NCI screen, growth of human tumor cells: Breast Cancer BT-549; conditions: BT-549 (Breast Cancer), 10^−4 molar
Procedure: as §1

PC-3 = test: NCI screen, growth of human tumor cells: Prostate Cancer PC-3; conditions: PC-3 (Prostate Cancer), 10^−4 molar
Procedure: as §1

OVCAR-3 = test: NCI screen, growth of human tumor cells: Ovarian Cancer OVCAR-3; conditions: OVCAR-3 (Ovarian Cancer), 10^−4 molar
Procedure: as §1

SF-539 = test: NCI screen, growth of human tumor cells: CNS Cancer SF-539; conditions: SF-539 (CNS Cancer), 10^−4 molar
Procedure: as §1

MCF7/ADR-RES = test: NCI screen, growth of human tumor cells: Breast Cancer MCF7/ADR-RES; conditions: MCF7/ADR-RES (Breast Cancer), 10^−4 molar
Procedure: as §1

LOXIMVI = test: NCI screen, growth of human tumor cells: Melanoma LOXIMVI; conditions: LOXIMVI (Melanoma), 10^−4 molar
Procedure: as §1

DU-145 = test: NCI screen, growth of human tumor cells: Prostate Cancer DU-145; conditions: DU-145 (Prostate Cancer), 10^−4 molar
Procedure: as §1

MCF 7 = test: NCI screen, growth of human tumor cells: Breast Cancer MCF 7; conditions: MCF 7 (Breast Cancer), 10^−4 molar
Procedure: as §1

CAKI-1 = test: NCI screen, growth of human tumor cells: Renal Cancer CAKI-1; conditions: CAKI-1 (Renal Cancer), 10^−4 molar
Procedure: as §1

U-251 = test: NCI screen, growth of human tumor cells: CNS Cancer U-251
Procedure: as §1

HT29 = test: NCI screen, growth of human tumor cells: Colon Cancer HT29; conditions: HT29 (Colon Cancer), 10^−4 molar
Procedure: as §1

OVCAR-5 = test: NCI screen, growth of human tumor cells: Ovarian Cancer OVCAR-5; conditions: OVCAR-5 (Ovarian Cancer), 10^−4 molar
Procedure: as §1

KM12 = test: NCI screen, growth of human tumor cells: Colon Cancer KM12; conditions: KM12 (Colon Cancer), 10^−4 molar
Procedure: as §1

786-0 = test: NCI screen, growth of human tumor cells: Renal Cancer 786-0; conditions: 786-0 (Renal Cancer), 10^−4 molar
Procedure: as §1

IGROVI = test: NCI screen, growth of human tumor cells: Ovarian Cancer IGROVI; conditions: IGROVI (Ovarian Cancer), 10^−4 molar
Procedure: as §1

SNB-19 = test: NCI screen, growth of human tumor cells: CNS Cancer SNB-19; conditions: SNB-19 (CNS Cancer), 10^−4 molar
Procedure: as §1

COLO205 = test: NCI screen, growth of human tumor cells: Colon Cancer COLO205; conditions: COLO205 (Colon Cancer), 10^−4 molar
Procedure: as §1

NCI-H226 = test: NCI screen, growth of human tumor cells: Non-Small Cell Lung NCI-H226; conditions: NCI-H226 (Non-Small Cell Lung), 10^−4 molar
Procedure: as §1

CCRF-CEM = test: NCI screen, growth of human tumor cells: Leukemia CCRF-CEM; conditions: CCRF-CEM (Leukemia), 10^−4 molar
Procedure: as §1

## O=C1C(Cl)=C(C2S(=O)(=O)OCCOS2(=O)=O)C(=O)c2ccccc21 [NSC 731260, ethylene 3-chloro-1,4-naphtho-2-quinoylmethanedisulfonate]
UACC-257; UACC-257, 10^−4 molar
  % Growth: −74%
SN12C
  percent of growth of human tumor cells: −12%
HS 578T
  percent of growth of human tumor cells: 8%
UACC-62; UACC-62, 10^−4 molar
  % Growth: −86%
NCI-H23
  percent of growth of human tumor cells: −54%
ACHN
  percent of growth of human tumor cells: −12%
NCI-H460
  percent of growth of human tumor cells: 4%
HL-60 (TB)
  percent of growth of human tumor cells: 13%
SK-MEL-28
  percent of growth of human tumor cells: −5%
SF-295
  percent of growth of human tumor cells: −46%
HCT-116
  % Growth: −89%
Human cancer cells
  Percentage of cancers showing negative growth cancers tested: 10^−4 M conc. = 16/37 = 43%
HCT-15; HCT-15 (Colon Cancer), 10^−4 molar
  percent of growth of human tumor cells: 17%
K562
  percent of growth of human tumor cells: 20%
MDA-MB-231/ATCC
  percent of growth of human tumor cells: −15%
RPMI-8226
  percent of growth of human tumor cells: −36%
UO-31
  percent of growth of human tumor cells: 30%
MDA-MB-435
  % Growth: −79%
M14
  percent of growth of human tumor cells: −58%
HOP-92
  percent of growth of human tumor cells: −3%
HOP-62
  percent of growth of human tumor cells: −56%
SF-268
  percent of growth of human tumor cells: 10%
SK-MEL-5
  percent of growth of human tumor cells: −54%
RXF-393
  percent of growth of human tumor cells: 28%
SR
  percent of growth of human tumor cells: 15%
SW620
  percent of growth of human tumor cells: 1%
OVCAR-8
  percent of growth of human tumor cells: 18%
OVCAR-4
  percent of growth of human tumor cells: 11%
BT-549
  percent of growth of human tumor cells: −32%
PC-3
  percent of growth of human tumor cells: 9%
OVCAR-3
  percent of growth of human tumor cells: 28%
SF-539
  percent of growth of human tumor cells: 1%
MCF7/ADR-RES
  percent of growth of human tumor cells: 25%
LOXIMVI
  percent of growth of human tumor cells: −43%
DU-145
  percent of growth of human tumor cells: 12%
MCF 7
  percent of growth of human tumor cells: 6%
CAKI-1
  percent of growth of human tumor cells: 18%
U-251; U-251 (CNS Cancer), 10^−4 molar
  percent of growth of human tumor cells: 2%

## CC=CC(=O)C1(Cc2ccc3c(c2)C(=O)c2ccccc2C3=O)S(=O)(=O)OCCOS1(=O)=O [NSC 731263]
UACC-257; UACC-257 (Melanoma), 10^−4 molar
  percent of growth of human tumor cells: −20%
SN12C
  percent of growth of human tumor cells: −53%
HS 578T
  percent of growth of human tumor cells: −18%
HT29
  percent of growth of human tumor cells: 1%
UACC-62; UACC-62 (Melanoma), 10^−4 molar
  percent of growth of human tumor cells: 16%
NCI-H23
  percent of growth of human tumor cells: 31%
NCI-H460
  percent of growth of human tumor cells: 2%
SK-MEL-28
  percent of growth of human tumor cells: −23%
HCT-116
  % Growth: −100%
Human cancer cells
  Percentage of cancers showing negative growth cancers tested: 10^−4 M conc. = 18/36 = 50%
HCT-15; HCT-15, 10^−4 molar
  % Growth: −65%
K562
  percent of growth of human tumor cells: 12%
MDA-MB-231/ATCC
  percent of growth of human tumor cells: −33%
OVCAR-5
  percent of growth of human tumor cells: 20%
RPMI-8226
  percent of growth of human tumor cells: −7%
UO-31
  percent of growth of human tumor cells: 1%
KM12
  percent of growth of human tumor cells: 2%
HOP-92
  percent of growth of human tumor cells: −16%
HOP-62
  percent of growth of human tumor cells: −38%
SF-268
  percent of growth of human tumor cells: −24%
RXF-393
  percent of growth of human tumor cells: −45%
SR
  percent of growth of human tumor cells: 24%
SW620
  percent of growth of human tumor cells: −38%
786-0
  percent of growth of human tumor cells: 1%
OVCAR-8
  percent of growth of human tumor cells: −39%
BT-549
  percent of growth of human tumor cells: −20%
IGROVI
  percent of growth of human tumor cells: 3%
PC-3
  percent of growth of human tumor cells: 11%
SNB-19
  percent of growth of human tumor cells: 10%
SF-539
  percent of growth of human tumor cells: −23%
MCF7/ADR-RES
  percent of growth of human tumor cells: 11%
DU-145
  percent of growth of human tumor cells: 1%
MCF 7
  percent of growth of human tumor cells: −17%
COLO205
  percent of growth of human tumor cells: 5%
NCI-H226
  percent of growth of human tumor cells: 10%
U-251; U251, 10^−4 molar
  % Growth: −85%
CCRF-CEM
  percent of growth of human tumor cells: 15%
